{"source": "patent US11213559B2", "about": "“Formulation for treatment of irritable bowel disease” (ABOCA S.P.A. SOCIETA′ AGRICOLA, priority 2012, dated 2022)", "key": {"[1]": {"system": "colitis induced by acetic acid", "assay": "model of colitis induced by acetic acid in rats", "format": "in vivo, rat", "conditions": "average ± SEM", "procedure": "To test in vivo the efficacy of the composition of the invention, said composition was formulated in capsules and was assessed in terms of its ability to protect the susceptibility of the intestinal mucosa to irritating stimuli. Based on the presumed mechanism of the product to act on the inflammatory component of IBS (supported only recently by the literature) by means of a local, indirect protective and anti-inflammatory action also stemming from mucoadhesion, an experimental model of inflammatory colitis, not specific for IBS, was selected.\nThe study was carried out on a model of colitis induced by acetic acid, as described by McPherson B R, Pfeiffer C J (1978) Experimental Production of Diffuse Colitis in Rats. Digestion;17:135-150; Mousavizadeh K, Rahimian R, Fakhfouri G, Aslani F S, Ghafourifar P. (2009) Anti-inflammatory effects of 5-HT receptor antagonist, tropisetron on experimental colitis in rats. Eur J Clin Invest.;39(5):375-83; Noronha-Blob L, Lowe V C, Muhlahauser R O, Burch R M. (1993) NPC 15669, an inhibitor of neutrophil recruitment, is efficacious in acetic acid-induced colitis in rats. Gastroenterology, 104:1021-9.\nEach group was formed by 10 rats in accordance with the following schema • 1. Rats without colitis, treated with vehicle 10 ml/kg, (p.o.); • 2. Rats with colitis, treated with vehicle 10 ml/kg, (p.o.); • 3. Rats with colitis, treated with the composition of the invention, (p.o.); • 4. Rats with colitis, treated with dexamethasone, (p.o) as reference. Macroscopic and microscopic parameters were measured.\nIn particular, the macroscopic damage to the colon, the colon index (mg of colon/grams of rat) and the activity of myeloperoxidase, an enzyme contained in the intracellular azurophilic granules of the polymorphonuclear leukocytes (PMNs), which can therefore be used as an indicator of the accumulation of the migrated neutrophils in the tissues during an inflammatory process, are shown.\nTo verify the effectiveness of the use of the incense ingredient in the formulations, the same experiment of inflammatory colitis induced by acetic acid was carried out with a formulation devoid of incense (ABO-INT-10-2), which corresponds to the formulation Abo-INT 10 (general formulations on page 16), devoid of incense."}, "[2]": {"system": "duodenum", "assay": "protective effect on intestinal mucosa in Ussing chamber, duodenum", "format": "in vivo, rat", "conditions": "isolated (stress) rats, composition 500 mg/kg, dexamethasone 1 mg/kg intragastrically, average ±SD", "procedure": "(§1) The experiment was conducted in order to verify the effects of the tested substances on the artificially damaged intestinal mucosa ex vivo (for example hydrochloric acid).\n(§2) […] male Sprague Dawley rats weighing approximately 200-250 g were used for the test.\n(§3) 4 groups of 8 rats A, B, C, D were formed, respectively containing untreated rats, rats treated with 1.0 ml saline solution intragastrically, rats treated with 1.0 ml (500 mg/kg of body weight) of composition of the invention intragastrically, and rats treated with 1.0 ml of dexamethasone (1 mg/kg of body weight) intragastrically.\n(§4) The animals in groups A, B, C and D were deprived of food for 18 hours.\nFour rats per group were anaesthetised 30 minutes after the above-indicated administration by means of intraperitoneal injection and were kept in a heated atmosphere.\nA sample of the duodenum was then dissected from these rats and mounted between the two half-chambers of the Ussing chamber and damage was induced using hydrochloride (pH 8.0; pH 5.5). […]\n(§5) The ddp in mV through the mucosal membrane was measured directly as well as the short-circuit current, and these were monitored for 15 minutes whilst the transmembrane resistance was calculated in ohm x cm^2 using Ohm's law. […]\n(§6) The system was then stabilised for 10 minutes and the same parameters as indicated above were then measured for 15 minutes. […]"}, "[3]": {"system": "ileum", "assay": "protective effect on intestinal mucosa in Ussing chamber, ileum", "format": "in vivo, rat", "conditions": "isolated (stress) rats, composition 500 mg/kg, dexamethasone 1 mg/kg intragastrically, average ±SD", "procedure": "as §1, §2, §3, §4\nFour rats per group were then anaesthetised 50 minutes after the above-indicated administration by means of intraperitoneal injection and were kept in a heated atmosphere.\nA sample of the ileum was then dissected from these rats and mounted between the two half-chambers of the Ussing chamber and damage was induced using hydrochloride (pH 8.0; pH 6.5). […]\nas §5, §6"}, "[4]": {"system": "CaCo-2", "assay": "antioxidant activity test (DCFH-DA, oxidative stress by oxygenated water)", "format": "cell-based, human", "conditions": "0.15 mg/ml", "procedure": "In order to verify the antioxidant power of the composition of the invention in a biological system similar to the intestinal epithelium (CaCo-2), the following tests were carried out: Evaluation of the antioxidant activity of the sample on human cells subject to chemical, progressive oxidative stress. The assessment of the antioxidant action is acquired from the quantification of the formation of free radicals in cells exposed to the sample and to oxidative stress. The antioxidant activity of the sample in analyses was evaluated by comparison with that of a safe hydrosoluble antioxidant, such as vitamin C. The protocol is based on the use of a fluorescent probe called 2′,7′-dichlorofluorescein diacetate (DCFH-DA), a non-fluorescent stable molecule that enters the cells, bonds to the membrane macromolecules, where it is hydrolysed from cytoplasmic esterases to give dichlorofluorescein (DCFH), a molecule that again is non-fluorescent. DCFH, in the presence of free radicals, is oxidised, forming a highly fluorescent molecule: DCF. The oxidative stress is induced via oxygenated water. The radicals produced constitutively from the cells with the addition of the sample, but without the addition of the oxidising agent, were also monitored as a negative control (absence of oxidant activity of the composition of the invention)."}, "[5]": {"conditions": "Table 1, rats with 4% acetic acid colitis, ABO/INT-10 1 g/kg, dexamethasone 1 mg/kg p.o."}, "[6]": {"conditions": "Table 3, experiment with formulation devoid of incense, ABO/INT-10-2 1 g/kg, dexamethasone 1 mg/kg"}, "[7]": {"conditions": "Table 4, experiment with formulation devoid of incense, ABO/INT-10-2 1 g/kg, dexamethasone 1 mg/kg"}}, "data": [{"smiles": "C[C@@H]1C[C@H]2[C@@H]3CCC4=CC(=O)C=C[C@]4(C)[C@@]3(F)[C@@H](O)C[C@]2(C)[C@@]1(O)C(=O)CO", "note": "[Dexamethasone, dexamethasone]", "values": [{"measurement": "Faecal excretion number", "setting": "[1]; [5]", "result": "40.40 ± 8.035"}, {"measurement": "Faecal excretion weight", "setting": "[1]; [5]", "result": "9.440 ± 1.790", "unit": "g"}, {"measurement": "Body weight (g) Final", "setting": "[1]; Table 1, rats with 4% acetic acid colitis, final, ABO/INT-10 1 g/kg, dexamethasone 1 mg/kg p.o.", "result": "214.3 ± 4.177", "unit": "g"}, {"measurement": "Macroscopic damage", "setting": "[1]; Table 2, colon, rats with 4% acetic acid colitis, composition 1 g/kg, dexamethasone 1 mg/kg p.o.", "result": "4.417 ± 1.052"}, {"measurement": "Colon index", "setting": "[1]; Table 2, mg of colon/grams of rat, composition 1 g/kg, dexamethasone 1 mg/kg p.o.", "result": "6.041 ± 0.341", "unit": "mg/g"}, {"measurement": "MPO (U/mg tissue)", "setting": "[1]; Table 2, myeloperoxidase activity, after 24 hours, composition 1 g/kg, dexamethasone 1 mg/kg p.o.", "result": "15.387 ± 6.136", "unit": "U/mg tissue"}, {"measurement": "Defecations number", "setting": "[1]; [6]", "result": "42.10 ± 9.011"}, {"measurement": "Defecations weight", "setting": "[1]; [6]", "result": "9.44 ± 1.79", "unit": "g"}, {"measurement": "Weight variation (g)", "setting": "[1]; [6]", "result": "2.167 ± 1.493", "unit": "°°** g"}, {"measurement": "Colon index (mg/g)", "setting": "[1]; [7]", "result": "6.041 ± 0.341", "unit": "°** mg/g"}, {"measurement": "MPO (U/mg tissue)", "setting": "[1]; [7]", "result": "16.423 ± 5.9780", "unit": "°* U/mg tissue"}, {"measurement": "Macroscopic damage", "setting": "[1]; [7]", "result": "4.417 ± 1.052", "unit": "°°**"}, {"measurement": "average value of resistance of the duodenum after induction of damage", "setting": "[2]; Krebs buffer at pH 5.5", "result": "48.0±12.7", "unit": "ohm×cm^2"}, {"measurement": "average value of resistance of the duodenum", "setting": "[2]; physiological pH Krebs buffer, 30 minutes", "result": "50.4±13.9", "unit": "ohm×cm^2"}, {"measurement": "average value of resistance of the ileum after induction of damage", "setting": "[3]; Krebs buffer at pH 6.5", "result": "39.7±8.1", "unit": "ohm×cm^2"}, {"measurement": "average value of resistance of the ileum", "setting": "[3]; physiological pH Krebs buffer, 50 minutes", "result": "50.6±13.4", "unit": "ohm×cm^2"}]}, {"smiles": "O=C1O[C@H]([C@@H](O)CO)C(O)=C1O", "note": "[vitamin C]", "values": [{"measurement": "% reduction of free radicals", "setting": "[4]; 30 min", "result": 38, "unit": "%"}, {"measurement": "% reduction of free radicals", "setting": "[4]; 60 min", "result": 44.8, "unit": "%"}, {"measurement": "% reduction of free radicals", "setting": "[4]; 90 min", "result": 48, "unit": "%"}, {"measurement": "% reduction of free radicals", "setting": "[4]; 120 min", "result": 47, "unit": "%"}]}]}
